Measurements from the NIST ThermoML archive (doi:10.1021/je400884v).
± gives the expanded uncertainty stated by the source.

Assay: an = ratio of the nth substance listed
Settings: 101 kPa, Liquid, Pycnometric method

| mass density (293.15 K, a1 = 0.25) | mass density (293.15 K, a1 = 0.33) | mass density (303.15 K, a1 = 0.25) | mass density (303.15 K, a1 = 0.33) | mass density (313.15 K, a1 = 0.25) | mass density (313.15 K, a1 = 0.33) | mass density (323.15 K, a1 = 0.25) | mass density (323.15 K, a1 = 0.33) | Compound | mass density (293.15 K, a2 = 0.25) | mass density (293.15 K, a2 = 0.33) | mass density (303.15 K, a2 = 0.25) | mass density (303.15 K, a2 = 0.33) | mass density (313.15 K, a2 = 0.25) | mass density (313.15 K, a2 = 0.33) | mass density (323.15 K, a2 = 0.25) | mass density (323.15 K, a2 = 0.33) |
| --- | --- | --- | --- | --- | --- | --- | --- | --- | --- | --- | --- | --- | --- | --- | --- | --- |
|  |  |  |  |  |  |  |  | CC(O)C(C)O (centres undefined) [2,3-butanediol] + C[N+](C)(C)CCO.[Cl-] | 1035 ± 1.7 kg/m3 | 1046.8 ± 1.7 kg/m3 | 1030.9 ± 1.7 kg/m3 | 1039 ± 1.7 kg/m3 | 1026.5 ± 1.7 kg/m3 | 1035.7 ± 1.7 kg/m3 | 1019.7 ± 1.7 kg/m3 | 1030 ± 1.7 kg/m3 |
| 1066.3 ± 1.7 kg/m3 | 1066.6 ± 1.7 kg/m3 | 1060.2 ± 1.7 kg/m3 | 1059.9 ± 1.7 kg/m3 | 1054.1 ± 1.7 kg/m3 | 1053.3 ± 1.7 kg/m3 | 1048 ± 1.7 kg/m3 | 1046.7 ± 1.7 kg/m3 | C[N+](C)(C)CCO.[Cl-] [choline chloride] + CC(O)CO |  |  |  |  |  |  |  |  |
|  |  |  |  |  |  |  |  | OCCCCO [1,4-butanediol] + C[N+](C)(C)CCO.[Cl-] | 1044.5 ± 1.7 kg/m3 | 1052.4 ± 1.7 kg/m3 | 1041.1 ± 1.7 kg/m3 | 1049 ± 1.7 kg/m3 | 1035.4 ± 1.7 kg/m3 | 1043.2 ± 1.7 kg/m3 | 1030.6 ± 1.7 kg/m3 | 1038.4 ± 1.7 kg/m3 |
